Test results from patent US20240139214A1, “AGENT FOR SUPPRESSING IL-31 PRODUCTION AND PHARMACEUTICAL COMPOSITION CONTAINING THE SAME” (KYUSHU UNIVERSITY, NATIONAL UNIVERSITY CORPORATION, priority 2021, published 2024).
Like-named read-outs stand apart in the source and are kept apart here.

What was measured:
CD4+ T cells = assay: T cell proliferation assay (PMA and ionomycin, 3H-thymidine incorporation); type: cell-based, mouse; conditions: for effect on non-specific T cell proliferation induced by PMA and ionomycin: FIG. 4
Method: (§1) A T cell proliferation assay was performed by culturing CD4^+ T cells (5×10^4 cells) with T cell-depleted irradiated spleen cells (1×10^6 cells) in the presence of phorbol 12-myristate 13-acetate (PMA: 100 ng/ml; Sigma-Aldrich) and ionomycin (1 μg/ml; Sigma-Aldrich) for 66 hours. For the last 18 hours of culture, ^3H-thymidine (0.037 MBq) was added, and the incorporated radioactivity was measured with MicroBeta^2 (PerkinElmer, Inc., Waltham, MS).
as §1, with “hours. Test compounds were added at various final concentrations at the start of culture.” for “hours.”, “MS). […]” for “MS).”

[1] = test system: VEGFA expression in human cancer cell line HT1080; assay: Hypoxia-induced VEGFA expression in HT1080; type: cell-based; conditions: HT1080, 1% O2; FIG. 7
Method: (§2) Human sarcoma cell line HT1080 was provided by Y. Matsumoto (Kyushu University). For hypoxic induction, HT1080 (3×10^5 cells) was cultured in 1% O2 for 12 hours before assays.
(§3) Total RNA was isolated using ISOGEN (Nippon Gene Co., Ltd.). For amplification by PCR, RNA samples treated with RNase-free DNase I (Thermo Fisher Scientific) were reverse-transcribed with oligo(dT) primers (TFS) and SuperScript III reverse transcriptase (TFS). Real-time PCR was performed in a CFX Connect™ thermal cycler (BIO-RAD) using SYBR Green PCR Master Mix (Thermo Fisher Scientific). The expression of mouse and human target genes was normalized to expression of Hprt and PPIB genes, respectively. CFX Manager software (ver.3.1) supplied with the instrument was used for analysis.
(§4) (1) Although EPAS1 is known to control hypoxic responses through complex formation with aryl hydrocarbon receptor nuclear translocator (ARNT) (NPL 6), EPAS1-mediated Il31 promoter activation is independent of ARNT (NPL 4). FM19G11 is not a direct inhibitor of EPAS1, but is known to suppress the expression of the EPAS1 gene (Epas1) by acting on an unidentified target (NPL 7). Treatment of human cancer cell line HT1080 with […] suppressed VEGFA expression and GLUT1 expression induced by hypoxia (FIG. 7).

[2] = test system: GLUT1 expression in human cancer cell line HT1080; assay: Hypoxia-induced GLUT1 expression in HT1080; type: cell-based; conditions: HT1080, 1% O2; FIG. 7
Method: as §2, §3, §4

IL-4 gene (Il4) = assay: IL-4 gene expression in CD4+ T cells from Dock8−/− AND Tg mice (real-time PCR); type: cell-based, mouse; conditions: 2.5 μM; FIG. 2B
Method: as §3
(§5) CD4^+ T cells (3×10^5 cells) from Dock8^−/− AND Tg mice were cultured with T cell-depleted irradiated spleen cells (5×10^6 cells) containing a test compound (2.5 μM) or a vehicle alone (0.1% DMSO), in the presence of MCC88-103 (3 μg/ml) for 24 hours.

[3] = Blood concentration after oral administration; type: in vivo; conditions: 100 mg orally, C57BL/6 mice, monitored 24 hours; FIG. 5
Method: After compound 1 (100 mg) was orally administered to C57BL/6 mice (n=3), its blood concentration was monitored for 24 hours.

CAG-OVA mice = assay: Scratch behavior measurement in CAG-OVA mice injected with activated CD4+ T cells from Dock8−/− OTII Tg mice; type: in vivo; conditions: oral administration; FIG. 6
Method: Mice were put into an acrylic cage (11×14×20 cm) for at least 1 hour for acclimation, and their behaviors were videotaped. Playback of the video was used for determination of the total number of scratching bouts per 2 hours. When mice scratch, they stretch their hind paw toward the itchy spot, lean their head toward the hind paw, rapidly move the paw several times, and then lower it back to the floor. A series of these movements was counted as one bout of scratching.
To investigate whether compound 1 has an itch inhibitory action, mice expressing ovalbumin (OVA) under the control of the cytomegalovirus immediate early enhancer-chicken β-actin hybrid promoter (hereafter referred to as “CAG-OVA mice”) were used. Activated CD4^+ T cells (8.0×10^6 per mouse) from Dock8^−/− OTII Tg mice were stimulated with OVA323-339 (ISQAVHAAHAEINEAGR (SEQ ID NO: 2), 1 μg/ml) for 72 hours and intravenously injected into CAG-OVA mice, and the scratch behavior of the mice was measured 1 hour later. As a result, when the activated CD4^+ T cells were injected into CAG-OVA mice, scratch behavior was induced (see the results of the vehicle in FIG. 6).

IL-2 = IL-2 production by SEB-stimulated human CD4+ T cells of AD patients (AlphaLISA); type: cell-based; conditions: SEB stimulation; FIG. 9B
IL-31 = IL-31 production by SEB-stimulated human CD4+ T cells of AD patients (AlphaLISA); type: cell-based; conditions: SEB stimulation; FIG. 9A
IL-2 gene (Il2) = assay: IL-2 gene expression in CD4+ T cells from Dock8−/− AND Tg mice (real-time PCR); type: cell-based, mouse; conditions: 2.5 μM; FIG. 2B
Method: as §3, §5

[4] = test system: human IL-31 gene promoter; assay: Luciferase reporter assay of human IL-31 gene promoter in MEFs in the presence of human EPAS1; type: cell-based; conditions: reporter construct (−1,308 to −1) in MEFs
[5] = Single-dose toxicity study, oral administration; type: in vivo; conditions: 100-mg oral administration
Method: From these, it is determined that compound 1 is a highly safe compound with low cytotoxicity.

EPAS1 = target: T1, EPAS1 (Mus musculus, UniProt P97481); assay: Chromatin immunoprecipitation (ChIP) assay: recruitment of EPAS1 to the IL-31 gene promoter region in CD4+ T cells; type: cell-based; conditions: antigen stimulation, 2.5 μM; FIG. 8
T1 construct: endogenous in cells; host or cells: CD4+ T cells from Dock8-/- AND Tg mice, stimulated with MCC88-103
T1 sequence (P97481 whole entry): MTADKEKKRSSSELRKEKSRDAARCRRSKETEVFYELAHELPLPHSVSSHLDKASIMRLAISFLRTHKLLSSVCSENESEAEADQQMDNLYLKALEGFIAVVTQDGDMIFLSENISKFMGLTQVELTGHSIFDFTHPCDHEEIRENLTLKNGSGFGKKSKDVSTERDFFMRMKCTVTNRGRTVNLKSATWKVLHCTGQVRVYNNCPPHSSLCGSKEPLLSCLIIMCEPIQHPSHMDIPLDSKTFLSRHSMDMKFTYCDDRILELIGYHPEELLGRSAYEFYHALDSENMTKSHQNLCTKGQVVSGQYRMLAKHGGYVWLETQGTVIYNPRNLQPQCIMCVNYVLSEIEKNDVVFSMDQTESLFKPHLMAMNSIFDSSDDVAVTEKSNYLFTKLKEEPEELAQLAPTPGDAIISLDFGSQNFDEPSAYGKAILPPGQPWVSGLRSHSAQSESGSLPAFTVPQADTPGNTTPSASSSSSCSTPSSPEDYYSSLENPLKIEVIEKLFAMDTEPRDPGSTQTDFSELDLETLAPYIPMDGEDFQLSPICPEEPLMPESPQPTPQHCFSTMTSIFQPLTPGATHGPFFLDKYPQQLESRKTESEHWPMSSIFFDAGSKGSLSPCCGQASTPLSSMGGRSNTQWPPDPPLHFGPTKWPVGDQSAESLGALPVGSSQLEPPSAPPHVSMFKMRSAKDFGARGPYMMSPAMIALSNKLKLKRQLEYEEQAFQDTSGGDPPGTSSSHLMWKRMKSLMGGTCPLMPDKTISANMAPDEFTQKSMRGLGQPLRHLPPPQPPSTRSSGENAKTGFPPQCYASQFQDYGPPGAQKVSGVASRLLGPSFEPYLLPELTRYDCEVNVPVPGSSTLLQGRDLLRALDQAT
Method: A ChIP assay was performed using activated mouse CD4^+ T cells and immortalized MEFs. Briefly, CD4^+ T cells from Dock8^−/− AND Tg mice were stimulated with MCC88-103 in the presence of a test compound (2.5 μM) or a vehicle alone (0.1% DMSO) for 24 hours. Immortalized MEFs were co-transfected with pcDNA-human EPAS1 (2 μg) in the presence of pGL4.10 IL31 (2 μg). Six hours after transfection, the MEFs were suspended in 10% FCS-containing DMEM that contains a test compound (10 μM) or a vehicle alone (0.1% DMSO) for another 24 hours.
The activated mouse CD4^+ cells and the transfected MEFs were treated with 0.5% formaldehyde at room temperature for 5 minutes and then neutralized with glycine at room temperature for 5 minutes. The resulting cells were washed twice with PBS containing a protease inhibitor, and then nuclei were isolated using a Magna ChIP™ HiSens kit (Millipore, Burlington, MS) according to the manufacturer's protocol. […] After centrifugation at 10,000 g at 4° C. for 10 minutes, the sheared chromatin DNA was obtained and treated with RNase and proteinase K for quantifying DNA content. […]
Magnetic beads preincubated with rabbit polyclonal IgG (ab171870; Abcam) were used for control studies. […] Eluted DNA and input chromatin DNA were analyzed with a CFX Connect™ thermal cycler (BIO-RAD) using SYBR Green PCR Master Mix (Thermo Fisher Scientific) and the following primers. […]

mouse IL-31 gene = assay: IL-31 production inhibitory action: IL-31 gene expression by real-time PCR in antigen-stimulated CD4+ T cells from Dock8−/− AND Tg mice; type: cell-based; conditions: for antigen-induced IL-31 gene expression (in words): 2.5 μM, FIG. 2A
[6] = Mus musculus, CD4+ T, 24 h, read-out: qPCR results (IL-31 production (%)): based on the case using 0.1% DMSO taken as 100%

## CC(C)c1ccc(/C=N/Nc2ccc(C(=O)O)cc2)cc1 [Compound 1, 4-(2-(4-Isopropylbenzylidene)hydrazinyl)benzoic Acid]
CD4+ T cells
  effect on non-specific T cell proliferation induced by PMA and ionomycin: neither of these compounds had an adverse effect
CD4+ T cells; even when used at 50 μM
  effect on non-specific T-cell proliferation response in vitro: did not affect
[1]
  VEGFA expression induced by hypoxia: did not show such an effect of suppressing expression
[2]
  GLUT1 expression induced by hypoxia: did not show such an effect of suppressing expression
IL-4 gene (Il4)
  effect on expression of IL-4 gene: neither of these compounds had an effect
[3]
  time after oral administration within which compound was eluted into the blood: ≤ 12 h
CAG-OVA mice
  scratch behavior (number of scratching bouts during 2 hours): significantly suppressed
IL-2
  IL-2 production by CD4+ T cells of AD patients: not affected
IL-31
  IL-31 production by CD4+ T cells of AD patients: reduced IL-31 production in a dose-dependent manner
IL-2 gene (Il2)
  effect on expression of IL-2 gene: neither of these compounds had an effect
[4]
  activation of the human IL-31 gene promoter: significantly suppressed
[5]
  body weight gain versus non-treated group: did not differ from the non-treated group
  histological or biochemical abnormalities: no histological or biochemical abnormalities
EPAS1
  recruitment of EPAS1 to the IL-31 gene promoter region (−1336 to −1042): greatly reduced
Mouse IL-31 gene
  antigen-induced IL-31 gene expression (in words): significantly inhibited
Mouse IL-31 gene; [6]
  activity at 0.078 µM: 57.5%
  activity at 0.156 µM: 40.1%
  activity at 0.312 µM: 38.7%
  activity at 0.625 µM: 23.9%
  activity at 1.25 µM: 16.4%

## CN(C)CCOc1ccc(/C=N/Nc2ccc(C(=O)O)cc2)cc1 [Negative control compound 1, 4-(2-(4-(2-(Dimethylamino)ethoxy)benzylidene)hydrazineyl)benzoic Acid, reference compound]
CD4+ T cells
  effect on non-specific T cell proliferation induced by PMA and ionomycin: neither of these compounds had an adverse effect
IL-4 gene (Il4)
  effect on expression of IL-4 gene: neither of these compounds had an effect
IL-2 gene (Il2)
  effect on expression of IL-2 gene: neither of these compounds had an effect
Mouse IL-31 gene
  antigen-induced IL-31 gene expression (in words): not inhibited
Mouse IL-31 gene; relative to compound 1
  IL-31 production inhibitory action (in words, discussion of Table 1): tended to notably decrease

## Cc1ccc(C(=O)COC(=O)c2cccc(NC(=O)c3ccc([N+](=O)[O-])cc3[N+](=O)[O-])c2)cc1 [FM419G11, reference compound]
[1]
  VEGFA expression induced by hypoxia: suppressed
[2]
  GLUT1 expression induced by hypoxia: suppressed

## O=C(O)c1ccc(-c2cn(-c3cc(C(F)(F)F)ccc3Cl)nn2)cc1 [Compound 23, 4-(1-(2-Chloro-5-(trifluoromethyl)phenyl)-1H-1,2,3-triazol-4-yl)benzoic Acid]
CD4+ T cells; Mus musculus, CD4+ T, 66 h, 5 μM, read-out: Cell proliferation (%): based on the case using 0.2% DMSO taken as 100%
  activity at 5 µM: 110%
CD4+ T cells; Mus musculus, CD4+ T, 66 h, 10 μM, read-out: Cell proliferation (%): based on the case using 0.2% DMSO taken as 100%
  activity at 10 µM: 92.9%
CD4+ T cells; Mus musculus, CD4+ T, 66 h, 20 μM, read-out: Cell proliferation (%): based on the case using 0.2% DMSO taken as 100%
  activity at 20 µM: 88.5%
CD4+ T cells; Mus musculus, CD4+ T, 66 h, 40 μM, read-out: Cell proliferation (%): based on the case using 0.2% DMSO taken as 100%
  activity at 40 µM: 68.9%
Mouse IL-31 gene; Mus musculus, CD4+ T, 24 h, 0.156 μM, read-out: qPCR results (IL-31 production (%)): based on the case using 0.1% DMSO taken as 100%
  activity at 0.156 µM: 32.5%
Mouse IL-31 gene; Mus musculus, CD4+ T, 24 h, 0.312 μM, read-out: qPCR results (IL-31 production (%)): based on the case using 0.1% DMSO taken as 100%
  activity at 0.312 µM: 46.4%
Mouse IL-31 gene; Mus musculus, CD4+ T, 24 h, 0.625 μM, read-out: qPCR results (IL-31 production (%)): based on the case using 0.1% DMSO taken as 100%
  activity at 0.625 µM: 31.4%
Mouse IL-31 gene; Mus musculus, CD4+ T, 24 h, 1.25 μM, read-out: qPCR results (IL-31 production (%)): based on the case using 0.1% DMSO taken as 100%
  activity at 1.25 µM: 22.7%
